Columns and labels:
[1] = test system: human brain 130/110 kDa APP; assay: ^65Zn binding to human brain 130/110 kDa APP (time course, competition, Scatchard)
Text: FIG. 4 is a graphical representation showing a time course analysis of ^65Zn binding to human brain 130/110 kDa APP. Amyloid protein precursor (APP) was purified according to the method in Moir et al. (1992). The preparation of purified 130 and 110 kDa APP was derived from human brain membrane extracts and contained the full-length precursor with carboxyl terminus intact but lacked the 17 residue signal peptide. The 130 and 110 kDa proteins were apparent in equal ratios on silver staining following polyacrylamide gel electrophoresis and were the only bands visible. The identity of these two proteins was confirmed by Western blots with monoclonal antibody 22C11 (which recognises an amino terminal epitope on APP), and by amino terminal sequencing. The protein concentration of the APP preparation was determined by amino acid analysis. Aliquots of APP (90 ng, =1.1 pmole, assuming the average amino acid formula weight of APP is =80 kDa) were incubated at 20° C. for the times indicated. Incubations (50 μl) were performed in 150 mM NaCl, 50 mM Tris-Hcl, pH 7.4 in the presence of 10^6 cpm of ^65Zn (175 nM). The incubation solution was then applied to a 1.1 ml bed volume Sephadex G25 (Pharmacia, Uppsala, Sweden) column pre-equilibrated with 150 mM NaCl, 50 mM Tris-HCl, pH 7.4 and allowed to settle before being desalted with 645 μl of the Equilibration buffer. […] The desalted protein was collected directly into counting tubes containing 10 ml aqueous counting scintillant. Less than two minutes was required to complete the desalting. The amount of ^65Zn bound to desalted APP was determined by counting the collected sample in a beta-counter set to the broadest channel. Counting was determined to be 51% efficient. The values shown are means±SD of n≧3 readings.
FIG. 5 is a graphical representation showing a competition analysis of ^65Zn binding to human brain 130/110 kDa APP. Aliquots of APP were incubated for 30 minutes with ^65Zn as in FIG. 4. The binding of the labelled Zn^2+ to APP was subjected to competition with unlabelled Zn^2+ in the form of the chloride salt. Data shown indicate the competition curves generated at pH 6.4 and 7.4. The binding of Zn^2+ to APP deteriorated at the lower pH (=45% of Bmax, pH 7.4). The values are means±SEM of n≧3 readings. The curves illustrated are typical of three experiments.
FIG. 6 is a graphical representation depicting a Scatchard analysis of ^65Zn binding to human brain 130/110 kDa APP.
Binding analysis was performed as follows: Aliquots of APP (90 ng, =1.1 pmole, assuming the average amino acid formula mass of APP is =80 kDa) were incubated at 20° C. Incubations (50 μl) were performed in 150 mM NaCl, 50 mM Tris-HCl, pH 7.4 in the presence of 10^6 CPM of ^65Zn (175 nM). The incubation solution was then applied to a 1.1 ml bed volume Sephadex G25 (Pharmacia, Uppsala, Sweden) column pre-equilibrated with 150 mM NaCl, 50 mM Tris-HCl, pH 7.4 and allowed to settle before being desalted with 645 μl of the equilibration buffer. […] The deslated protein was collected directly into counting tubes containing 10 ml aqueous counting scintillant (ACSII, Amersham). Less than two minutes was required to complete the desalting. The amount of ^65Zn bound to desalted APP was determined by counting the collected sample in a beta-counter set to the broadest channel. Counting was determined to be 51% efficient. The binding of the labelled Zn^2+ to APP was subjected to competition with unlabelled Zn^2+ and other metal chloride salts.

APP-degrading protease = assay: Assay of APP-degrading protease (Zn^2+-enhanced degradation of plasma 130 kDa APP); assay type: biochemical, human; conditions: heparin-Sepharose eluates, 37° C.
[2] = test system: human brain full-length APP; assay: ^125I-APP binding to heparin-Sepharose
Experimental: 100 kDa human brian full-length APP was iodinated by the Chloramine-T method. Iodinated APP (^125I-APP) was then separated from labelling reagents by Sephacryl G25 chromatography.
The column was then washed with 6 ml buffer 1 and the APP eluted with aliquots of high-NaCl buffers.

[3] = molecular target: T1, APP purified from rat brain (Rattus norvegicus, UniProt P08592); assay: heparin binding to APP in a Biosensor system
T1 construct: from tissue; host or cells: rat brain
T1 sequence (P08592 18-770): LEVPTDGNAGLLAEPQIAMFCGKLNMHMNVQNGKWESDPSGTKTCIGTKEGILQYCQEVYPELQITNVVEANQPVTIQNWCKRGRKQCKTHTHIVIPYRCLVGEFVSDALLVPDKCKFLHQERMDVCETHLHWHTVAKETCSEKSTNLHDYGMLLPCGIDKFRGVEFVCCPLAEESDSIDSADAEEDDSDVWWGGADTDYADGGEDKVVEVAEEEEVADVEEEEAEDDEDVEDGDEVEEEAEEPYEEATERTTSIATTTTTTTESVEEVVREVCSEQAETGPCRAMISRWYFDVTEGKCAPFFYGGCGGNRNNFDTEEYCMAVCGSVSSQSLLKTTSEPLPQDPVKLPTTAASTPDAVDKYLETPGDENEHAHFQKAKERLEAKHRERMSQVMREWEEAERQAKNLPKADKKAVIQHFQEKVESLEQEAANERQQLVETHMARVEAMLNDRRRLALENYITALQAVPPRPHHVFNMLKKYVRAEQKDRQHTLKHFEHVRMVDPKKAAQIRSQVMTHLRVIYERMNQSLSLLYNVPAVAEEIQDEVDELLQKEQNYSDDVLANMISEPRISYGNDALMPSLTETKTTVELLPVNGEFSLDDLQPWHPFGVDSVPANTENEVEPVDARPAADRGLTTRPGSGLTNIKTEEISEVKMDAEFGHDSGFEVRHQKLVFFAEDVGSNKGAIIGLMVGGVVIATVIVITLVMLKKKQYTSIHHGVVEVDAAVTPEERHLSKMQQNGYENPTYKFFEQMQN
Experimental: The effect of Zn^2+ in modulating heparin binding to APP was also studied in a Biosensor system. […] This effect was most pronounced and most specific for Zn^2+, as opposed to the absence of divalent cations or the presence of Ca^2+, Mg^2+ or Co^2+, and was most evident when the heparin:APP ratio was low. […] Zn^2+ at 50 nM promoted a =170% increase in heparin binding, the effect saturating at 70 μM.

[4] = test system: human brain membrane-derived APP; assay: trypsin digestion of human brain membrane-derived APP, Western blot with 22C11; assay type: biochemical
Text: The proteolytic activity of trypsin (Boehringer, Mannheim) was studied to determine whether it was modulated by a range of doses of heparin (Sigma) and ZnCl2. […] Western blots for APP using the APP binding monoclonal antibody 22C11 were used to monitor the progression of the proteolytic reaction and to detect breakdown products.

trypsin = assay: tryptic activity on fluorogenic substrate Z-F-R-AMC; assay type: biochemical; conditions: range of doses
APP = assay: Effect of zinc loading upon rat brain APP; assay type: in vivo; conditions: 120 mg/kg injected daily for four days
Experimental: 16 week old Sprauge-Dawley male rats were injected daily for four days with 120 mg/kg ZnCl2 solution. The animals were then anaesthetized, bled by intracardiac puncture and their brains removed, homogenized and separated into membrane and soluble fractions following ultracentrifugation.

PC12 cells = assay: Effect of extracellular zinc on cultured PC12 cells (APP by Western blot); assay type: cell-based; conditions: 48 hr
Experimental: 10^6 PC12 cells were plated for 24 hr in the presence of Dulbecco's modified Eagle's medium (DMEM, N2) supplemented with 8% fetal calf serum (FCS). The medium was then removed and replaced with DMEM±2 to 50 μM ZnCl2 or another salt, and no FCS. Cells and media were harvested 48 hr later and aliquots of media, cell cytosol and membrane (following lysis and ultracentrifugation) were assayed for APP by Western blotting with mAb 22C11.

[Cl-].[Cl-].[Zn+2] [Zn^2+, ZnCl2]
Zn bound to APP, % of Bmax ([1]; at 1 minute): 30%
Zn bound to APP, % of Bmax ([1]; at 5 minutes): 30%
binding of Zn^2+ to APP at the lower pH, % of Bmax at pH 7.4 ([1]; pH 6.4): 45%
^65Zn label competed off APP (of Bmax) ([1]; unlabelled metal ion at 20 μM): > 97%
effect on proteolysis of plasma APP (APP-degrading protease): Proteolysis was accelerated
concentration at which increase in ^125I-APP binding to heparin reached a plateau [2]: 75 µM
increase in ^125I-APP recovered from the 50-2000 mM NaCl elution fraction ([2]; 50 μM Zn^2+): approximately 3 fold
increase in amount of brain APP binding to heparin ([2]; 50 μM Zn^2+): 50%
increase in ^125I-APP recovered from the 50-2000 mM NaCl elution fraction ([2]; 100 μM Zn^2+): 4.5 fold
concentration at which effect on heparin binding saturates [3]: 70 µM
effect on heparin binding to APP ([3]; 100 μM): strongly promote heparin binding to APP
increase in heparin binding to rat brain APP ([3]; Zn^2+ at 50 nM): 170%
Zn^2+ concentration that completely abolished the protective effect of heparin ([4]; with heparin (1 μM)): above 1 μM
effect on rate of APP proteolysis by trypsin ([4]; without heparin, Zn^2+ up to 100 μM, EDTA 1 mM): had no effect
effect on tryptic activity (trypsin): left tryptic activity unaltered
new APP band in plasma (APP): development of a novel 80 kDa band in plasma
increase in the amounts of all forms of APP (APP; plasma and brain preparations vs litter-mates): 80%
increase in APP released into the media (PC12 cells; 2 μM): 50%
increase in APP released into the media (peak) (PC12 cells; 50 μM): 200%
cytosolic APP (PC12 cells): Smaller increases in cytosolic APP
membrane associated APP levels (PC12 cells): no change in membrane associated APP levels
